Patent publication US8217085B2 (priority 2009, dated 2012)
Where two headings read alike, the source gives them in different places.

Experiments:
[1] = tested on: ATCC strain 43300 Staphylococcus aureus; settings: methicillin alone, 12 μg/ml, 30 μg/ml and 60 μg/ml
Protocol: Additional antibiotic was added every 24 hours. The growth periods tested were 24 (FIG. 5), 48, 72, 96 and 120 hours.
USP<51> Antimicrobial Effectiveness protocol was used as the template experimental paradigm. […] All concentrations were plated out to the 10^−7 dilutions to ascertain cfu/ml. […] Additional antibiotic was added at the initial concentration every 24 hours.
ATCC strain 43300 Staphylococcus aureus was streaked out for isolations. An isolated colony was chosen, streaked again and incubated. Isolate was chosen and then diluted to a McFarland standard of one. The estimated value was then taken to inoculate tubes containing growth media and 12, 30 or 60 μg/ml methicillin with approximately 10^5 cfu/ml. These tubes were incubated and plated for counting cfu.
Material was calculated on a 10 ml volume. Sterile methicillin was added to each experimental condition to a final concentration of 12, 30 or 60 μg/ml antibiotic. Lactose Broth positive controls both with and without the 12 μg/ml, 30 μg/ml, 60 μg/ml antibiotic were inoculated with MRSA. […] Tubes were set up in singlet, but plated in triplicate, as described below.
All tubes were then inoculated with a dilution of the selected ATCC strain 43300 Staphylococcus aureus clone giving a final level of colony forming units of 1.49×10^5/ml (log=5.17). The tubes were incubated at 25° C. and mixed periodically. Antibiotic was re-inoculated every 24 hours at the initial concentration to maintain pressure on the organism. Plating was done at 24, 48, 72, and 120 hours. Each condition was plated by diluting 1 ml of growth material into 9 ml of MLB diluent broth. […] This mixture was serial diluted down to 10^−7 with 1 ml placed in triplicate in a sterile petri dish at each dilution point. 20 mls of TSA was added to each dilution, swirled and allowed to solidify. All dilutions were placed in a 35° C. incubator for 24 to 72 hours. Bacterial colonies on each plate were counted and the average taken then changed into log format.

[2] = tested on: drug sensitive Staphylococcus aureus; settings: Etest system; cited from earlier work
[3] = tested on: ATCC strain 43300 Staphylococcus aureus; settings: oxacillin alone, 12 μg/ml, 30 μg/ml and 60 μg/ml
Protocol: Additional antibiotic was added every 24 hours.
USP<51> Antimicrobial Effectiveness protocol was used as the template experimental paradigm. […] All concentrations were plated out to the 10^−7 dilutionsto ascertain cfu/ml. […] Additional antibiotic was added at the initial concentration every 24 hours.
ATCC strain 43300 Staphylococcus aureus was streaked out for isolations. An isolated colony was chosen, streaked again and incubated. Isolate was chosen and then diluted to a McFarland standard of one. The estimated value was then taken to inoculate tubes containing growth media and 12, 30 or 60 μg/ml oxacillin with approximately 10^5 cfu/ml. These tubes were incubated and plated for counting cfu.
Material was calculated on a 10 ml volume. Sterile oxacillin was added to each experimental condition to a final concentration of 12, 30 or 60 μg/ml antibiotic.
All tubes were then inoculated with a dilution of the selected ATCC strain 43300 Staphylococcus aureus clone giving a final level of colony forming units of 3.3×10^5/ml (log=5.52). The tubes were incubated at 25° C. and mixed periodically. Antibiotic was re-inoculated every 24 hours at the initial concentration to maintain pressure on the organism. Plating was done at 24, 48, 72, and 120 hours. Each condition was plated by diluting 1 ml of growth material into 9 ml of MLB diluent broth. […] This mixture was serial diluted down to 10^−7 with 1 ml placed in triplicate in a sterile petri dish at each dilution point. 20 mls of TSA was added to each dilution, swirled and allowed to solidify. All dilutions were placed in a 35° C. incubator for 24 to 72 hours. Bacterial colonies on each plate were counted and the average taken then changed into log format. Any cfu/ml observed greater than 3.3×10^5 (log=5.5) were recorded as >3.3×10^5.

Compound	change in colony forming units from initial inoculum [1]	MIC [2] [µg/mL]	change in colony forming units from initial inoculum [3]
COc1cccc(OC)c1C(=O)N[C@@H]1C(=O)N2[C@@H]1SC(C)(C)[C@@H]2C(=O)O [methicillin, reference compound]	no significant decrease in colony forming units	–	–
Cc1onc(-c2ccccc2)c1C(=O)N[C@@H]1C(=O)N2[C@@H]1SC(C)(C)[C@@H]2C(=O)O [oxacillin, reference compound]	–	≤ 2	no significant decrease in colony forming units
